Data from patent US9096602B2, “Substituted pyrrolo[2,3-B]pyrazines as ATR kinase inhibitors” (Vertex Pharmaceuticals Incorporated, priority 2011, dated 2015).
pKi: −log10 of the molar value. Where two headings read alike, the source gives them in different places.

Target: T1, ATR kinase (full-length ATR) (Homo sapiens, UniProt Q13535)
T1 construct: Assays were carried out at 25° C. in the presence of 5 nM full-length ATR
Assay: ATR Inhibition Assay (radioactive-phosphate incorporation)
Type: biochemical
Details: Ki(app), 5 nM full-length ATR, 10 μM ATP, 800 μM target peptide, 25° C., read-out: ATR Inhibition Ki
Method in brief: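 Radiometric 33P filter assay with 5 nM full-length ATR in 50 mM Tris/HCl pH 7.5, 10 mM MgCl2, 1 mM DTT at 25 °C. Final 10 μM [γ-33P]ATP and 800 μM peptide; 10 min compound preincubation, ATP start, stopped at 24 h with phosphoric acid/ATP. Ki(app) from non-linear regression of background-corrected initial rates.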

[1] = given as numeric lower bound without unit

T1 sequence (Q13535 whole entry): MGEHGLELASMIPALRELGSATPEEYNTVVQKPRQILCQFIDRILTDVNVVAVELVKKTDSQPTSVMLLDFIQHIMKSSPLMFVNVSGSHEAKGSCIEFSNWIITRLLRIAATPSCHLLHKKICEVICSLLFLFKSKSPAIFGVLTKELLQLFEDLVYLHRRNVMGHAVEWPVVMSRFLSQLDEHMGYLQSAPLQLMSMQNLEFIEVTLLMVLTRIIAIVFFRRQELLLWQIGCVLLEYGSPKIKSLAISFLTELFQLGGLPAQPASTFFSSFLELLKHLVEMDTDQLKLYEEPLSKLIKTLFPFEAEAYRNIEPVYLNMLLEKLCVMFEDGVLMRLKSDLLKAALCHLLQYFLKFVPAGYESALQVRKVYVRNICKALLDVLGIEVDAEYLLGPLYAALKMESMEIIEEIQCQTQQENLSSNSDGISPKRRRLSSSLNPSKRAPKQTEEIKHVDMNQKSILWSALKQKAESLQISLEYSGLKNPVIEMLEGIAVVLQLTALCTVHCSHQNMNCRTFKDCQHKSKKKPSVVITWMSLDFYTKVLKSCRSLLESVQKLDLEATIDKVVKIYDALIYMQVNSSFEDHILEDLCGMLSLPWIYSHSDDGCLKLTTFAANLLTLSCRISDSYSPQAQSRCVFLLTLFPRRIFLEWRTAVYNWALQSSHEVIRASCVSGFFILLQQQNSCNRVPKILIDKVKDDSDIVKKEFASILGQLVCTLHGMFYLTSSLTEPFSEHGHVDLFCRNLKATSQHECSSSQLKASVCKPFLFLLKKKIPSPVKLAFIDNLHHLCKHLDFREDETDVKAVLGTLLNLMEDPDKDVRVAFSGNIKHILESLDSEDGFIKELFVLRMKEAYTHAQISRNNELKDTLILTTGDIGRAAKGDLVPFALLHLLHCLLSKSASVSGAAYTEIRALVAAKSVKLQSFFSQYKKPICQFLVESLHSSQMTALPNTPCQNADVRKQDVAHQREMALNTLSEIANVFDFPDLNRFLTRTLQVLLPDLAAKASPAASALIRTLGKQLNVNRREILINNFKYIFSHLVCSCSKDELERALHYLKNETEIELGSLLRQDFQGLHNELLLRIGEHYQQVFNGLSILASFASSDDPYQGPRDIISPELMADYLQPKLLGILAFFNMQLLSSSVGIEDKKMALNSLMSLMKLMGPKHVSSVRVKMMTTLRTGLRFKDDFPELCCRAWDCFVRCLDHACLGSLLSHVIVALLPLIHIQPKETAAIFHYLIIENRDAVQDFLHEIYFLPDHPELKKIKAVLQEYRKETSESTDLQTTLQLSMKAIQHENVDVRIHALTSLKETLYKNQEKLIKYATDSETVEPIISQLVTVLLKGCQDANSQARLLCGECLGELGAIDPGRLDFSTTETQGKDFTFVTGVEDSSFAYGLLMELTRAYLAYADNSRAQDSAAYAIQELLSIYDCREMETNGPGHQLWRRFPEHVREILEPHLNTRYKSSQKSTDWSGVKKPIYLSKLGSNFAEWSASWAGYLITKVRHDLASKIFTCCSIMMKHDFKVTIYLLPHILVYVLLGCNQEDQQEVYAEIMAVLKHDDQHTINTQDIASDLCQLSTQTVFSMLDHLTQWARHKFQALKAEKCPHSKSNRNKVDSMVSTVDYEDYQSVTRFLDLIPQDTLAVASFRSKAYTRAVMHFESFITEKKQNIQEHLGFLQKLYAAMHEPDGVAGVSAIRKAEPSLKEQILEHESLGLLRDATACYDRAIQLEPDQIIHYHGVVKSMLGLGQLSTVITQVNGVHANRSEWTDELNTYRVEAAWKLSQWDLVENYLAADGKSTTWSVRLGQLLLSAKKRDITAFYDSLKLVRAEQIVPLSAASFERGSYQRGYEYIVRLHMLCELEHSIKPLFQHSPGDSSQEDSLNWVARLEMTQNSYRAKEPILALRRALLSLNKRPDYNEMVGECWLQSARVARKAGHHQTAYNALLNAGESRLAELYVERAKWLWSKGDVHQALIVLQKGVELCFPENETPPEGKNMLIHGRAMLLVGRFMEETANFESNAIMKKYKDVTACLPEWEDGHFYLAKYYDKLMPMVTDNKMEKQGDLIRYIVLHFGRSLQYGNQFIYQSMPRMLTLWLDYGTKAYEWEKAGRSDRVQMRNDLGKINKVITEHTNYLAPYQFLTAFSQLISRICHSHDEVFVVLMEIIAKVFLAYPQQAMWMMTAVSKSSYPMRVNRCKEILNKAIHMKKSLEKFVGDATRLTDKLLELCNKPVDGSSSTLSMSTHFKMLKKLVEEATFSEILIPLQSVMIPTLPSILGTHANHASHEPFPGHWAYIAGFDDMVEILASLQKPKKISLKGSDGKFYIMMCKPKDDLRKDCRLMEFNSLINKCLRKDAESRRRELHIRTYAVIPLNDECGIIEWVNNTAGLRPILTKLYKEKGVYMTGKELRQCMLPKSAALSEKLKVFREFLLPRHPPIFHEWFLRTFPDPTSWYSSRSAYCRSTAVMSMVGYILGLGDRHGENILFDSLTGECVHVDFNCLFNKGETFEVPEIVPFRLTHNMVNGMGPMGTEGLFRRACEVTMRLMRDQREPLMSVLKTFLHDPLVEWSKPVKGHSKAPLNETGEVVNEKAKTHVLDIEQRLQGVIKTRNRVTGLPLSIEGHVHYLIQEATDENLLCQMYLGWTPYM

SMILES | pKi (class symbols) | pKi [1]
CC(C)S(=O)(=O)c1ccc(-c2cnc3[nH]cc(C(=O)Nc4cccc(F)c4)c3n2)cc1 [Compound I-73, N-(3-fluorophenyl)-2-(4-isopropylsulfonylphenyl)-5H-pyrrolo[2,3-b]pyrazine-7-carboxamide] | > 7.00 | 
CC(C)S(=O)(=O)c1ccc(-c2cnc3[nH]cc(C(=O)N[C@@H](C)c4ccc(F)cc4)c3n2)cc1 [Compound I-74, N-[(1S)-1-(4-fluorophenyl)ethyl]-2-(4-isopropylsulfonylphenyl)-5H-pyrrolo[2,3-b]pyrazine-7-carboxamide] | 5.30 to 6.30 | 
CC(C)S(=O)(=O)c1ccc(-c2cnc3[nH]cc(C(=O)NCc4cccc(F)c4)c3n2)cc1 [Compound I-75, N-[(3-fluorophenyl)methyl]-2-(4-isopropylsulfonylphenyl)-5H-pyrrolo[2,3-b]pyrazine-7-carboxamide] | 6.30 to 7.00 | 
Cc1cccc(NC(=O)c2c[nH]c3ncc(-c4ccc(S(=O)(=O)C(C)C)cc4)nc23)c1 [Compound I-76, 2-(4-isopropylsulfonylphenyl)-N-(m-tolyl)-5H-pyrrolo[2,3-b]pyrazine-7-carboxamide] | 5.30 to 6.30 | 
CC(C)S(=O)(=O)c1ccc(-c2cnc3[nH]cc(C(=O)NC(CCO)c4cccc(O)c4)c3n2)cc1 (stereo not drawn) [Compound I-77, N-[3-hydroxy-1-(3-hydroxyphenyl)propyl]-2-(4-isopropylsulfonylphenyl)-5H-pyrrolo[2,3-b]pyrazine-7-carboxamide] | 6.30 to 7.00 | 
CC(C)S(=O)(=O)c1ccc(-c2cnc3[nH]cc(C(=O)NC(CCO)c4ccc(F)cc4)c3n2)cc1 (stereo not drawn) [Compound I-78, N-[1-(4-fluorophenyl)-3-hydroxy-propyl]-2-(4-isopropylsulfonylphenyl)-5H-pyrrolo[2,3-b]pyrazine-7-carboxamide] | 6.30 to 7.00 | 
CC(C)S(=O)(=O)c1ccc(-c2cnc3[nH]cc(C(=O)NC(CCO)c4cccc(N)c4)c3n2)cc1 (stereo not drawn) [Compound I-79, N-[1-(3-aminophenyl)-3-hydroxy-propyl]-2-(4-isopropylsulfonylphenyl)-5H-pyrrolo[2,3-b]pyrazine-7-carboxamide] | 6.30 to 7.00 | 
CC(C)S(=O)(=O)c1ccc(-c2cnc3[nH]cc(C(=O)NC(CCO)c4ccc(N)cc4)c3n2)cc1 (stereo not drawn) [Compound I-80, N-[1-(4-aminophenyl)-3-hydroxy-propyl]-2-(4-isopropylsulfonylphenyl)-5H-pyrrolo[2,3-b]pyrazine-7-carboxamide] | 6.30 to 7.00 | 
Cc1ccc([C@@H](CCO)NC(=O)c2c[nH]c3ncc(-c4ccc(S(=O)(=O)C(C)C)cc4)nc23)cc1 [Compound I-81, N-[(1R)-3-hydroxy-1-(p-tolyl)propyl]-2-(4-isopropylsulfonylphenyl)-5H-pyrrolo[2,3-b]pyrazine-7-carboxamide] | > 7.00 | 
Cc1ccc(CNC(=O)c2c[nH]c3ncc(-c4ccc(S(=O)(=O)C(C)C)cc4)nc23)c(C)c1 [Compound I-82, N-[(2,4-dimethylphenyl)methyl]-2-(4-isopropylsulfonylphenyl)-5H-pyrrolo[2,3-b]pyrazine-7-carboxamide] | > 7.00 | 
Cc1cccnc1CNC(=O)c1c[nH]c2ncc(-c3ccc(S(=O)(=O)C(C)C)cc3)nc12 [Compound I-83, 2-(4-isopropylsulfonylphenyl)-N-[(3-methyl-2-pyridyl)methyl]-5H-pyrrolo[2,3-b]pyrazine-7-carboxamide] | 6.30 to 7.00 | 
CC(C)S(=O)(=O)c1ccc(-c2cnc3[nH]cc(C(=O)N[C@H](C)[C@@H](O)c4ccc(O)cc4)c3n2)cc1 [Compound I-84, N-[(1R,2S)-2-hydroxy-2-(4-hydroxyphenyl)-1-methyl-ethyl]-2-(4-isopropylsulfonylphenyl)-5H-pyrrolo[2,3-b]pyrazine-7-carboxamide] | 6.30 to 7.00 | 
Cc1c(F)cccc1CNC(=O)c1c[nH]c2ncc(-c3ccc(S(=O)(=O)C(C)C)cc3)nc12 [Compound I-85, N-[(3-fluoro-2-methyl-phenyl)methyl]-2-(4-isopropylsulfonylphenyl)-5H-pyrrolo[2,3-b]pyrazine-7-carboxamide] | > 7.00 | 
CC(C)S(=O)(=O)c1ccc(-c2cnc3[nH]cc(C(=O)NC4CCOc5ccccc54)c3n2)cc1 (stereo not drawn) [Compound I-86, N-chroman-4-yl-2-(4-isopropylsulfonylphenyl)-5H-pyrrolo[2,3-b]pyrazine-7-carboxamide] | > 7.00 | 
Cc1ccc(F)cc1CNC(=O)c1c[nH]c2ncc(-c3ccc(S(=O)(=O)C(C)C)cc3)nc12 [Compound I-87, N-[(5-fluoro-2-methyl-phenyl)methyl]-2-(4-isopropylsulfonylphenyl)-5H-pyrrolo[2,3-b]pyrazine-7-carboxamide] | > 7.00 | 
CC(C)S(=O)(=O)c1ccc(-c2cnc3[nH]cc(C(=O)NCc4cccc(F)c4F)c3n2)cc1 [Compound I-88, N-[(2,3-difluorophenyl)methyl]-2-(4-isopropylsulfonylphenyl)-5H-pyrrolo[2,3-b]pyrazine-7-carboxamide] | > 7.00 | 
Cc1cccc(C)c1CNC(=O)c1c[nH]c2ncc(-c3ccc(S(=O)(=O)C(C)C)cc3)nc12 [Compound I-89, N-[(2,6-dimethylphenyl)methyl]-2-(4-isopropylsulfonylphenyl)-5H-pyrrolo[2,3-b]pyrazine-7-carboxamide] | > 7.00 | 
CC(C)S(=O)(=O)c1ccc(-c2cnc3[nH]cc(C(=O)NCC4(N)CCCCC4)c3n2)cc1 [Compound I-90, N-[(1-aminocyclohexyl)methyl]-2-(4-isopropylsulfonylphenyl)-5H-pyrrolo[2,3-b]pyrazine-7-carboxamide] |  | < 6.60
Cc1ccc([C@H](CCO)NC(=O)c2c[nH]c3ncc(-c4ccc(S(=O)(=O)C(C)C)cc4)nc23)cc1 [Compound I-91, N-[(1S)-3-hydroxy-1-(p-tolyl)propyl]-2-(4-isopropylsulfonylphenyl)-5H-pyrrolo[2,3-b]pyrazine-7-carboxamide] | 6.30 to 7.00 | 
CC(C)S(=O)(=O)c1ccc(-c2cnc3[nH]cc(C(=O)NCc4cccc(Cl)c4F)c3n2)cc1 [Compound I-92, N-[(3-chloro-2-fluoro-phenyl)methyl]-2-(4-isopropylsulfonylphenyl)-5H-pyrrolo[2,3-b]pyrazine-7-carboxamide] | > 7.00 | 
CC(C)S(=O)(=O)c1ccc(-c2cnc3[nH]cc(C(=O)NCC4CCC(CN)CC4)c3n2)cc1 (stereo not drawn) [Compound I-93, N-[[4-(aminomethyl)cyclohexyl]methyl]-2-(4-isopropylsulfonylphenyl)-5H-pyrrolo[2,3-b]pyrazine-7-carboxamide] | 6.30 to 7.00 | 
CC(C)S(=O)(=O)c1ccc(-c2cnc3[nH]cc(C(=O)NCC4(O)CCCCC4)c3n2)cc1 [Compound I-94, N-[(1-hydroxycyclohexyl)methyl]-2-(4-isopropylsulfonylphenyl)-5H-pyrrolo[2,3-b]pyrazine-7-carboxamide] | > 7.00 | 
CCN(C(=O)c1c[nH]c2ncc(-c3ccc(S(=O)(=O)C(C)C)cc3)nc12)C1CCCCC1 [Compound I-95, N-cyclohexyl-N-ethyl-2-(4-isopropylsulfonylphenyl)-5H-pyrrolo[2,3-b]pyrazine-7-carboxamide] | 5.30 to 6.30 | 
CC(C)S(=O)(=O)c1ccc(-c2cnc3[nH]cc(C(=O)N4CCCN(C)CC4)c3n2)cc1 [Compound I-96, [2-(4-isopropylsulfonylphenyl)-5H-pyrrolo[2,3-b]pyrazin-7-yl]-(4-methyl-1,4-diazepan-1-yl)methanone] |  | < 5.40
